Holding throughout (assay): relative viability (nuclei count vs DMSO), 5 days (fraction); higher = more cells survive
Compound in the test “Bleomycin + Luminespib”: CC1=C(N=C(N=C1N)[C@H](CC(=O)N)NC[C@@H](C(=O)N)N)C(=O)N[C@@H]([C@H](C2=CN=CN2)OC3C(C(C(C(O3)CO)O)O)OC4C(C(C(C(O4)CO)O)OC(=O)N)O)C(=O)N[C@H](C)[C@H]([C@H](C)C(=O)N[C@@H]([C@@H](C)O)C(=O)NCCC5=NC(=CS5)C6=NC(=CS6)C(=O)NCCC[S+](C)C)O [Bleomycin] + CCNC(=O)c1noc(-c2cc(C(C)C)c(O)cc2O)c1-c1ccc(CN2CCOCC2)cc1 [Luminespib] (partner 0.01 µM)
The note with it: main component drawn. Summed up:
(§1)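 Lung cancer cell lines were pin-tool dosed in 1536-well plates on the day after seeding, with either a lone drug or a fixed anchor-drug dose plus five library-drug doses (not always all listed) in √10 steps. Nuclei were counted on 4× images after 5 days. Relative viability is the ratio of treated-well to vehicle-well nuclei counts, with each value a median of duplicate plates.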

Compound in the test “Etoposide + Palbociclib”: COc1cc([C@@H]2c3cc4c(cc3[C@@H](O[C@@H]3O[C@@H]5CO[C@@H](C)O[C@H]5[C@H](O)[C@H]3O)[C@H]3COC(=O)[C@H]23)OCO4)cc(OC)c1O [Etoposide] + CC(=O)c1c(C)c2cnc(Nc3ccc(N4CCNCC4)cn3)nc2n(C2CCCC2)c1=O [Palbociclib] (partner 0.5 µM)
Put shortly:
as §1

Compound in the test “Etoposide + Phenformin”: COc1cc([C@@H]2c3cc4c(cc3[C@@H](O[C@@H]3O[C@@H]5CO[C@@H](C)O[C@H]5[C@H](O)[C@H]3O)[C@H]3COC(=O)[C@H]23)OCO4)cc(OC)c1O [Etoposide] + N=C(N)NC(=N)NCCc1ccccc1 [Phenformin] (partner 250 µM)
Summed up:
as §1

Compound in the test “Etoposide + Olaparib”: COc1cc([C@@H]2c3cc4c(cc3[C@@H](O[C@@H]3O[C@@H]5CO[C@@H](C)O[C@H]5[C@H](O)[C@H]3O)[C@H]3COC(=O)[C@H]23)OCO4)cc(OC)c1O [Etoposide] + O=C(c1cc(Cc2n[nH]c(=O)c3ccccc23)ccc1F)N1CCN(C(=O)C2CC2)CC1 [Olaparib] (partner 8 µM)
Put shortly: as §1

For UMC-11, the relative viability with Bleomycin + Luminespib (first compound 0.01 µM) came to 0.914; in the test with Bleomycin + Luminespib (first compound 0.03162 µM) it was 1.05; with Bleomycin + Luminespib (first compound 0.1 µM) it was 0.893; in the test with Bleomycin + Luminespib (first compound 0.3162 µM) it was 0.65; in the test with Bleomycin + Luminespib (first compound 1 µM), 0.539; with Etoposide + Palbociclib (first compound 0.01 µM), 0.327. For the same cell line, the relative viability in the test with Etoposide + Palbociclib (first compound 0.03162 µM) came to 0.308; with Etoposide + Palbociclib (first compound 0.1 µM), 0.312; with Etoposide + Palbociclib (first compound 0.3162 µM) it was 0.313; with Etoposide + Palbociclib (first compound 1 µM), 0.298; with Etoposide + Phenformin (first compound 0.01 µM) it was 0.333; in the test with Etoposide + Phenformin (first compound 0.03162 µM), 0.341. Also, the relative viability turned out to be 0.275 in the test with Etoposide + Phenformin (first compound 0.1 µM); 0.233 in the test with Etoposide + Phenformin (first compound 0.3162 µM); 0.207 with Etoposide + Phenformin (first compound 1 µM); 0.326 with Etoposide + Olaparib (first compound 0.01 µM); 0.331 with Etoposide + Olaparib (first compound 0.03162 µM); 0.311 in the test with Etoposide + Olaparib (first compound 0.1 µM). The relative viability amounted to 0.27 with Etoposide + Olaparib (first compound 0.3162 µM) and 0.28 in the test with Etoposide + Olaparib (first compound 1 µM).
